In patent US20260055114A1, “IMIDAZO[1,2-B]PYRIDAZINE INHIBITORS OF CYCLIN-DEPENDENT KINASES” (H. LEE MOFFITT CANCER CENTER AND RESEARCH INSTITUTE, INC., priority 2022, published 2026):

Columns and labels:
CDK12 = CDK12 (Homo sapiens, UniProt Q9NYV4); test: Inhibition of cyclin-dependent kinase 12 (% enzyme activity at 1 uM and IC50); type: biochemical; settings: for remaining activity at 1 µM: 1 uM compound
MDA-MB-231 cell line = test: Antiproliferative activity, MDA-MB-231 cell line (GI50); type: cell-based; settings: Homo sapiens
CCNK = CCNK degradation (DC50, Dmax); type: cell-based; settings: for Dmax (%): CCNK degradation

Chain of CDK12 (Q9NYV4 whole entry): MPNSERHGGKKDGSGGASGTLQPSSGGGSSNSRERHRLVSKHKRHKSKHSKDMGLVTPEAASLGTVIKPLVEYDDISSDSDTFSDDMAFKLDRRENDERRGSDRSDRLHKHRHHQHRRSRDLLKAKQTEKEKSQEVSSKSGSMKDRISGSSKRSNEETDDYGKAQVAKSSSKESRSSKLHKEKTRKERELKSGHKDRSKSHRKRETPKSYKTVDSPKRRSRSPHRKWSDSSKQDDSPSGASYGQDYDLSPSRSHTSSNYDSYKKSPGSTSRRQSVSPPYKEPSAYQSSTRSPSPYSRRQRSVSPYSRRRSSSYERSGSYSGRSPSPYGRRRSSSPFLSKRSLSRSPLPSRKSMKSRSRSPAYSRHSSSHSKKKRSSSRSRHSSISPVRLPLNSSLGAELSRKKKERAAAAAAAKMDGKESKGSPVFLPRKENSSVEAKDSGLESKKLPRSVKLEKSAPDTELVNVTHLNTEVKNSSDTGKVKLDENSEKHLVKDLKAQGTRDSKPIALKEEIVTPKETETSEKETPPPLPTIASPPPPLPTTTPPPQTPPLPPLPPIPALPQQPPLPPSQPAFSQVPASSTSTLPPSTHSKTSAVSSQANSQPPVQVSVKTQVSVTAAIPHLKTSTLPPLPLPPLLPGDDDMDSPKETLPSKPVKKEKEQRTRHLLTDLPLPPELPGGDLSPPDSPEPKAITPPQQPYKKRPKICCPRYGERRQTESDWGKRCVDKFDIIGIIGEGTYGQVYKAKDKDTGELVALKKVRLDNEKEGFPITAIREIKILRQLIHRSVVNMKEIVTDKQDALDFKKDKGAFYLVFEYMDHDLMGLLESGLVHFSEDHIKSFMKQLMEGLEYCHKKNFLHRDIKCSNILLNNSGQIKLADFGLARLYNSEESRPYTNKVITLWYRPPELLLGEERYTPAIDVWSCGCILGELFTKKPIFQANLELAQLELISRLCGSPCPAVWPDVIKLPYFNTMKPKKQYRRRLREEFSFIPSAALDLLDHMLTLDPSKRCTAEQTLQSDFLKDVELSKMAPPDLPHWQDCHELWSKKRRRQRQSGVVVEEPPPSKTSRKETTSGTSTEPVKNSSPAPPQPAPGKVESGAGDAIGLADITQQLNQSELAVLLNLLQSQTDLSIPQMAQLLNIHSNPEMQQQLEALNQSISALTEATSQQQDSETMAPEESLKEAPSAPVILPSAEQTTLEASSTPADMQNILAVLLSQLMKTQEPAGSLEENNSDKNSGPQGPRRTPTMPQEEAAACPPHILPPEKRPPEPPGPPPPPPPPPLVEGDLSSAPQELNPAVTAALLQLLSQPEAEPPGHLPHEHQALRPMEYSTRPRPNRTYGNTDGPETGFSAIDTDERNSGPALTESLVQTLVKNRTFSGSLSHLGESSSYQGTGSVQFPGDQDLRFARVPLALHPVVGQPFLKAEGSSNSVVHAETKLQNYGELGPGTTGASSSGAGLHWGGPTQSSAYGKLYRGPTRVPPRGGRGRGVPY
Chain of CDK12 (O75909 whole entry partner): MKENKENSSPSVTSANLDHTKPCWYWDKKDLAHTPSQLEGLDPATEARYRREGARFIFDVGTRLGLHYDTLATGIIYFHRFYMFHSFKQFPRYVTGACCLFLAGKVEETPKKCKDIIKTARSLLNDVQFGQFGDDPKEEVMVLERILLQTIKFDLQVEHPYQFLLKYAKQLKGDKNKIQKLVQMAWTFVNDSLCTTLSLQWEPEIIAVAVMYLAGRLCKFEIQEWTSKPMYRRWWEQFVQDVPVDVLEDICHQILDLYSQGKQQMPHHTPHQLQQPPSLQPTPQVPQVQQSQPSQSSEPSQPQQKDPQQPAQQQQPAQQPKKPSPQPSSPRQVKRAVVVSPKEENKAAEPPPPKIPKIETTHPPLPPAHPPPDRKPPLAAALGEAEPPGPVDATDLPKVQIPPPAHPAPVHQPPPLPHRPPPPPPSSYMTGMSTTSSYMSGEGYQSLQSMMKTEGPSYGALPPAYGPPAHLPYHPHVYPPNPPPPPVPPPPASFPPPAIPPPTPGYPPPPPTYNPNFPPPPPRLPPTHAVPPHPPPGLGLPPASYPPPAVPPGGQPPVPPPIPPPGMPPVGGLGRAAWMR

Compound	IC50 (CDK12) [nM]	remaining activity at 1 µM (CDK12) [%]	GI50 (MDA-MB-231 cell line) [nM]	DC50 (CCNK) [nM]	Dmax (%) (CCNK)
CC(C)n1cc(-c2cnc3c(NCc4nc5c(F)cccc5[nH]4)cc(N4CCOCC4)nn23)cn1 [Cmpd 27, N-((4-fluoro-1H-benzo[d]imidazol-2-yl)methyl)-3-(1-isopropyl-1H-pyrazol-4-yl)-6-morpholinoimidazo[1,2-b]pyridazin-8-amine]	1080	52	10000	1600	50
CN1CCN(c2cc(NCc3nc4cc(Cl)c(Cl)cc4[nH]3)c3ncc(-c4cnn(C5CC5)c4)n3n2)CC1 [Cmpd 29, 3-(1-cyclopropyl-1H-pyrazol-4-yl)-N-((5,6-dichloro-1H-benzo[d]imidazol-2-yl)methyl)-6-(4-methylpiperazin-1-yl) imidazo[1,2-b]pyridazin-8-amine]	–	81	1120	10000	–
Clc1cc2nc(CNc3cc(N4CCOCC4)nn4c(-c5cnn(C6CC6)c5)cnc34)[nH]c2cc1Cl [Cmpd 30, 3-(1-cyclopropyl-1H-pyrazol-4-yl)-N-((5,6-dichloro-1H-benzo[d]imidazol-2-yl)methyl)-6-morpholinoimidazo[1,2-b]pyridazin-8-amine]	–	83	2120	3000	70
CN1CCN(c2cc(NCc3nc4cccc(Cl)c4[nH]3)c3ncc(-c4cnn(C5CC5)c4)n3n2)CC1 [Cmpd 32, N-((7-chloro-1H-benzo[d]imidazol-2-yl)methyl)-3-(1-cyclopropyl-1H-pyrazol-4-yl)-6-(4-methylpiperazin-1-yl) imidazo[1,2-b]pyridazin-8-amine]	2080	45	4430	1400	50
Clc1cccc2nc(CNc3cc(N4CCOCC4)nn4c(-c5cnn(C6CC6)c5)cnc34)[nH]c12 [Cmpd 33, N-((7-chloro-1H-benzo[d]imidazol-2-yl)methyl)-3-(1-cyclopropyl-1H-pyrazol-4-yl)-6-morpholinoimidazo[1,2-b]pyridazin-8-amine]	–	60	6160	830	65
CN1CCN(c2cc(NCc3nc4c(F)cccc4[nH]3)c3ncc(-c4cnn(C5CC5)c4)n3n2)CC1 [Cmpd 35, 3-(1-cyclopropyl-1H-pyrazol-4-yl)-N-((4-fluoro-1H-benzo[d]imidazol-2-yl)methyl)-6-(4-methylpiperazin-1-yl) imidazo[1,2-b]pyridazin-8-amine]	–	49	5170	1300	80
Fc1cccc2[nH]c(CNc3cc(N4CCOCC4)nn4c(-c5cnn(C6CC6)c5)cnc34)nc12 [Cmpd 36, 3-(1-cyclopropyl-1H-pyrazol-4-yl)-N-((4-fluoro-1H-benzo[d]imidazol-2-yl)methyl)-6-morpholinoimidazo[1,2-b]pyridazin-8-amine]	1220	45	4670	830	65
CN1CCN(c2cc(NCc3nc4c(F)c(F)ccc4[nH]3)c3ncc(-c4cnn(C5CC5)c4)n3n2)CC1 [Cmpd 38, 3-(1-cyclopropyl-1H-pyrazol-4-yl)-N-((4,5-difluoro-1H-benzo[d]imidazol-2-yl)methyl)-6-(4-methylpiperazin-1-yl) imidazo[1,2-b]pyridazin-8-amine]	–	53	5430	1600	65
Fc1ccc2[nH]c(CNc3cc(N4CCOCC4)nn4c(-c5cnn(C6CC6)c5)cnc34)nc2c1F [Cmpd 39, 3-(1-cyclopropyl-1H-pyrazol-4-yl)-N-((4,5-difluoro-1H-benzo[d]imidazol-2-yl)methyl)-6-morpholinoimidazo[1,2-b]pyridazin-8-amine]	–	61	10000	920	80
CN1CCN(c2cc(NCc3nc4c(F)cccc4[nH]3)c3ncc(-c4cnn(C(F)F)c4)n3n2)CC1 [Cmpd 51, 3-(1-(difluoromethyl)-1H-pyrazol-4-yl)-N-((4-fluoro-1H-benzo[d]imidazol-2-yl)methyl)-6-(4-methylpiperazin-1-yl) imidazo[1,2-b]pyridazin-8-amine]	–	55	5130	1900	50
CN1CCN(c2cc(NCc3nc4c(F)c(F)ccc4[nH]3)c3ncc(-c4cnn(C(F)F)c4)n3n2)CC1 [Cmpd 54, N-((4,5-difluoro-1H-benzo[d]imidazol-2-yl)methyl)-3-(1-(difluoromethyl)-1H-pyrazol-4-yl)-6-(4-methylpiperazin-1-yl) imidazo[1,2-b]pyridazin-8-amine]	175	–	440	110	85
Fc1ccc2[nH]c(CNc3cc(N4CCOCC4)nn4c(-c5cnn(C(F)F)c5)cnc34)nc2c1F [Cmpd 55, N-((4,5-difluoro-1H-benzo[d]imidazol-2-yl)methyl)-3-(1-(difluoromethyl)-1H-pyrazol-4-yl)-6-morpholinoimidazo[1,2-b]pyridazin-8-amine]	283	–	472	70	80

Now those with a lower GI50 (MDA-MB-231 cell line), led by results:

IC50 (CDK12) [nM]	remaining activity at 1 µM (CDK12) [%]	GI50 (MDA-MB-231 cell line) [nM]	DC50 (CCNK) [nM]	Compound	Dmax (%) (CCNK)
54	–	419	240	Cc1ccnc2[nH]c(CNc3cc(N4CCN(C)CC4)nn4c(-c5cnn(C(F)F)c5)cnc34)nc12 [Cmpd 57, 3-(1-(difluoromethyl)-1H-pyrazol-4-yl)-N-((7-methyl-3H-imidazo[4,5-b]pyridin-2-yl)methyl)-6-(4-methylpiperazin-1-yl) imidazo[1,2-b]pyridazin-8-amine]	65
65	–	406	260	Cc1ccnc2[nH]c(CNc3cc(N4CCOCC4)nn4c(-c5cnn(C(F)F)c5)cnc34)nc12 [Cmpd 58, 3-(1-(difluoromethyl)-1H-pyrazol-4-yl)-N-((7-methyl-3H-imidazo[4,5-b]pyridin-2-yl)methyl)-6-morpholinoimidazo[1,2-b]pyridazin-8-amine]	100
359	23	390	30	Fc1cccc2[nH]c(CNc3cc(N4CCOCC4)nn4c(-c5cnn(C(F)F)c5)cnc34)nc12 [Cmpd 52, 3-(1-(difluoromethyl)-1H-pyrazol-4-yl)-N-((4-fluoro-1H-benzo[d]imidazol-2-yl)methyl)-6-morpholinoimidazo[1,2-b]pyridazin-8-amine]	80
567	–	365	1200	NC1CCN(c2cc(NCc3nc4cc(Cl)c(Cl)cc4[nH]3)c3ncc(-c4cnn(C(F)F)c4)n3n2)CC1 [Cmpd 45, 6-(4-aminopiperidin-1-yl)-N-((5,6-dichloro-1H-benzo[d]imidazol-2-yl)methyl)-3-(1-(difluoromethyl)-1H-pyrazol-4-yl) imidazo[1,2-b]pyridazin-8-amine]	100
1000	–	247	470	CN1CCN(c2cc(NCc3nc4cc(Cl)c(Cl)cc4[nH]3)c3ncc(-c4cnn(C(F)F)c4)n3n2)CC1 [Cmpd 41, N-((5,6-dichloro-1H-benzo[d]imidazol-2-yl)methyl)-3-(1-(difluoromethyl)-1H-pyrazol-4-yl)-6-(4-methylpiperazin-1-yl) imidazo[1,2-b]pyridazin-8-amine]	100
1420	–	154	440	NC1CCN(c2cc(NCc3nc4cc(Cl)c(Cl)cc4[nH]3)c3ncc(-c4cnn(C(F)F)c4)n3n2)C1 (centres unmarked) [Cmpd 44, 6-(3-aminopyrrolidin-1-yl)-N-((5,6-dichloro-1H-benzo[d]imidazol-2-yl)methyl)-3-(1-(difluoromethyl)-1H-pyrazol-4-yl) imidazo[1,2-b]pyridazin-8-amine]	100
2440	–	130	200	CC1(C)CN(c2cc(NCc3nc4cc(Cl)c(Cl)cc4[nH]3)c3ncc(-c4cnn(C(F)F)c4)n3n2)CCO1 [Cmpd 48, N-((5,6-dichloro-1H-benzo[d]imidazol-2-yl)methyl)-3-(1-(difluoromethyl)-1H-pyrazol-4-yl)-6-(2,2-dimethylmorpholino) imidazo[1,2-b]pyridazin-8-amine]	100
36	–	127	180	FC(F)n1cc(-c2cnc3c(NCc4nc5cc(Cl)c(Cl)cc5[nH]4)cc(N4CCOCC4)nn23)cn1 [Cmpd 42, N-((5,6-dichloro-1H-benzo[d]imidazol-2-yl)methyl)-3-(1-(difluoromethyl)-1H-pyrazol-4-yl)-6-morpholinoimidazo[1,2-b]pyridazin-8-amine]	100
292	–	49	150	FC(F)n1cc(-c2cnc3c(NCc4nc5cc(Cl)c(Cl)cc5[nH]4)cc(N4CCNCC4)nn23)cn1 [Cmpd 43, N-((5,6-dichloro-1H-benzo[d]imidazol-2-yl)methyl)-3-(1-(difluoromethyl)-1H-pyrazol-4-yl)-6-(piperazin-1-yl) imidazo[1,2-b]pyridazin-8-amine]	100
68	–	25	180	CN1CCC(Nc2cc(NCc3nc4cc(Cl)c(Cl)cc4[nH]3)c3ncc(-c4cnn(C(F)F)c4)n3n2)CC1 [Cmpd 46, N8-((5,6-dichloro-1H-benzo[d]imidazol-2-yl)methyl)-3-(1-(difluoromethyl)-1H-pyrazol-4-yl)-N6-(1-methylpiperidin-4-yl) imidazo[1,2-b]pyridazine-6,8-diamine]	100
18	–	7	30	CC1(C)CN(c2cc(NCc3nc4cc(Cl)c(Cl)cc4[nH]3)c3ncc(-c4cnn(C(F)F)c4)n3n2)CCN1 [Cmpd 47, N-((5,6-dichloro-1H-benzo[d]imidazol-2-yl)methyl)-3-(1-(difluoromethyl)-1H-pyrazol-4-yl)-6-(3,3-dimethylpiperazin-1-yl) imidazo[1,2-b]pyridazin-8-amine]	100
